Here are results for ten compounds from US20240228504A1, “SUBSTITUTED TRICYCLIC AMIDES, ANALOGUES THEREOF, AND METHODS USING SAME” (Arbutus Biopharma Corporation, priority 2020, published 2024).

One assay has as its system HBV rcDNA in HepDE19 cells. Put plainly: HepDE19 assay with bDNA quantitation of HBV rcDNA. It counts as cell-based, hepatitis B virus. The following applies: HepDE19 assay, inhibition of rcDNA formation, bDNA quantitation; read-out: DE-19bDNA EC50.
One may read the EC50 as the concentration needed to bring the measured effect to its halfway point. Regarding `CCc1cc(F)cc2[nH]c(C(=O)N(C)C3CNCc4[nH]c(=O)c5cc(F)c(F)cc5c43)cc12` (single isomer, unassigned) [Compound 401, N-(8,9-Difluoro-6-oxo-1,2,3,4,5,6-hexahydrobenzo[c][1,7]naphthyridin-1-yl)-4-ethyl-6-fluoro-N-methyl-1H-indole-2-carboxamide], the EC50 came out at 2500 nM.

For `CCc1cc(F)cc2[nH]c(C(=O)N(C)C3CNCc4[nH]c(=O)c5cc(F)c(F)cc5c43)cc12` (single isomer, unassigned) [Compound 402, N-(8,9-Difluoro-6-oxo-1,2,3,4,5,6-hexahydrobenzo[c][1,7]naphthyridin-1-yl)-4-ethyl-6-fluoro-N-methyl-1H-indole-2-carboxamide], the EC50 worked out at 20 nM. The same measure, in the same setting: in the case of `CN(C(=O)c1cnc(C(F)(F)F)c(F)c1)C1COCc2[nH]c(=O)c3cc(F)ccc3c21` (single isomer, unassigned) [Compound 414, 5-Fluoro-N-(8-fluoro-6-oxo-1,4,5,6-tetrahydro-2H-pyrano[3,4-c]isoquinolin-1-yl)-N-methyl-6-(trifluoromethyl)nicotinamide] it was 170 nM; in that of `CN(C(=O)c1cc2sccc2[nH]1)C1CNCc2[nH]c(=O)c3cc(F)c(F)cc3c21` (single isomer, unassigned) [Compound 420, N-(8,9-Difluoro-6-oxo-1,2,3,4,5,6-hexahydrobenzo[c][1,7]naphthyridin-1-yl)-N-methyl-4H-thieno[3,2-b]pyrrole-5-carboxamide], 660 nM; in that of `CN(C(=O)c1cc2sccc2[nH]1)C1CNCc2[nH]c(=O)c3cc(F)c(F)cc3c21` (single isomer, unassigned) [Compound 421, N-(8,9-Difluoro-6-oxo-1,2,3,4,5,6-hexahydrobenzo[c][1,7]naphthyridin-1-yl)-N-methyl-4H-thieno[3,2-b]pyrrole-5-carboxamide], 40 nM. In the case of `Cc1cccc2[nH]c(C(=O)N(C)C3COCc4[nH]c(=O)c5cc(F)ccc5c43)cc12` (single isomer, unassigned) [Compound 422, N-(8-Fluoro-6-oxo-1,4,5,6-tetrahydro-2H-pyrano[3,4-c]isoquinolin-1-yl)-N,4-dimethyl-1H-indole-2-carboxamide], the EC50 was 1200 nM. In the case of `Cc1cccc2[nH]c(C(=O)N(C)C3COCc4[nH]c(=O)c5cc(F)ccc5c43)cc12` (single isomer, unassigned) [Compound 423, N-(8-Fluoro-6-oxo-1,4,5,6-tetrahydro-2H-pyrano[3,4-c]isoquinolin-1-yl)-N,4-dimethyl-1H-indole-2-carboxamide], the EC50 was 10 nM.

The same assay, now with this note: Hepatitis B virus, HepDE19, HepDE19 assay, inhibition of rcDNA formation, bDNA quantitation; read-out: DE-19bDNA EC50.
Regarding `CN(C(=O)c1cc2cc(S(C)(=O)=O)ccc2[nH]1)C1CNCc2[nH]c(=O)c3cc(F)c(F)cc3c21` (single isomer, unassigned) [Compound 403, N-(8,9-Difluoro-6-oxo-1,2,3,4,5,6-hexahydrobenzo[c][1,7]naphthyridin-1-yl)-N-methyl-5-(methylsulfonyl)-1H-indole-2-carboxamide], the EC50 was 25000 nM. On the same count and under the same terms, the figure for `CN(C(=O)c1cc2cc(C#N)ccc2[nH]1)C1CNCc2[nH]c(=O)c3cc(F)c(F)cc3c21` (single isomer, unassigned) [Compound 406, 5-Cyano-N-(8,9-difluoro-6-oxo-1,2,3,4,5,6-hexahydrobenzo[c][1,7]naphthyridin-1-yl)-N-methyl-1H-indole-2-carboxamide] is 190 nM.

As to `CN(C(=O)c1cnc(C(F)(F)F)c(Cl)c1)C1CNCc2[nH]c(=O)c3cc(F)c(F)cc3c21` (single isomer, unassigned) [Compound 419, 5-Chloro-N-(8,9-difluoro-6-oxo-1,2,3,4,5,6-hexahydrobenzo[c][1,7]naphthyridin-1-yl)-N-methyl-6-(trifluoromethyl)nicotinamide], the EC50 stood at 140 nM.
